Laboratory results: patent publication US6723723B1, “Heterocyclic derivatives as inhibitors of factor Xa” (AstraZeneca, priority 1999, dated 2004)
Counter-ions that a name gives are not always drawn.

melting point: 186 to 190 °C
Structure (SMILES): O=C(c1ccc(-c2ccncc2)nc1)N1CCN(S(=O)(=O)c2cc3cc(Cl)ccc3[nH]2)CC1 (as salt: hydrochloride) [Example 1, 1-(5-Chloroindol-2-ylsulphonyl)-4-[6-(4-pyridyl)nicotinoyl]piperazine]
